Measurements published in US20220380347A1, “INHIBITORS OF CYSTEINE PROTEASES AND METHODS OF USE THEREOF” (Pardes Biosciences, Inc., priority 2020, published 2022).
Where “and” joins values, the source holds several entries; their conditions need not be identical. Equal values may be shown once. Read-outs that look alike come from different tables or passages of the source.

Experiments:
HCoV 229E = HCoV 229E cytopathic effect (CPE) assay, CellTiter Glo; format: cell-based, human coronavirus (HCov) 229E; details: unidentified human coronavirus, protection of virus-induced CPE
Description: Example 238: Evaluation of antiviral activity of compounds against human coronavirus (HCov) 229E and OC43 in the cytopathic effect (CPE) assays
Compounds were assayed using standard methods against multiple coronaviral strains, including HCoV 229E and OC43 strains. The antiviral activity of compounds was calculated based on the protection of the virus-induced CPE at each concentration normalized by the virus control.
Cytopathic effect (CPE) was measured by CellTiter Glo following the manufacturer's manual. The antiviral activity of compounds was calculated based on the protection of the virus-induced CPE at each concentration normalized by the virus control.
Cell viability was measured with CellTiter Glo.

[1] = biological target: COVID-19 (nCoV-2019, SARS-CoV2) Mpro (Severe acute respiratory syndrome coronavirus 2, UniProt P0DTD1); experiment: COVID-19 (nCoV-2019, SARS-CoV2) Mpro enzymatic assay; format: biochemical; details: 25 nM Mpro, 25 μM substrate; read-out: COVID-19 Mpro IC50
229E Mpro = 229E Mpro (Human coronavirus 229E, UniProt P0C6X1); experiment: 229E Mpro enzymatic assay (standard methods, SARS-CoV2 Mpro assay given as exemplary); format: biochemical, human coronavirus (HCov) 229E
Chain of 229E Mpro (P0C6X1 2966-3267): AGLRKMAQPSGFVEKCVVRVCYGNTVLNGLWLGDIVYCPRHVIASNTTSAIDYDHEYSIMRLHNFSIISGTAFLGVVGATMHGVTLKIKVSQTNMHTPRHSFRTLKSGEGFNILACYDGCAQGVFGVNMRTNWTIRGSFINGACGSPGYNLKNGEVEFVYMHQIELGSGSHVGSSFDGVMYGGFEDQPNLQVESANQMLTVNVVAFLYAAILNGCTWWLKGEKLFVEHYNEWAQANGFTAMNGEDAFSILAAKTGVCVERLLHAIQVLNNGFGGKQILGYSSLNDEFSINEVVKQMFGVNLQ
How it was run: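 IC50 for 229E Mpro by standard methods; exemplary SARS-CoV-2 protocol used C-His6-tagged Mpro from E. coli, 25 nM enzyme, 25 μM substrate (Km 13.5 μM), in Tris-HCl pH 7.3, NaCl, EDTA, TCEP, 0.1% BSA. Inhibition normalised to no-compound and full-effect controls; four-parameter fit.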

HCov OC43 = experiment: HCoV OC43 cytopathic effect (CPE) assay, CellTiter Glo; format: cell-based, human coronavirus (HCov) OC43
[2] = read-out: OC43 IC50 (uM) MEDIAN, median
[3] = Betacoronavirus 1, OC43, read-out: OC43 IC50 (uM) MEDIAN, median

Compound	EC50 (HCoV 229E) [nM]	IC50 [1]	EC50 (229E Mpro; 229E Mpro EC50) [nM]	IC50 (HCov OC43; [2]) [µM]	IC50 (HCov OC43; [3]) [µM]	EC50 (229E Mpro; read-out: 229E Mpro EC50) [nM]	IC50 (HCov OC43; read-out: OC43 IC50 (uM) MEDIAN, median, listed as 407 Isomer 1) [µM]	IC50 (HCov OC43; read-out: OC43 IC50 (uM) MEDIAN, median, listed as 1161 Isomer 4) [µM]
CC(C)(C)c1ccc(N(C(=O)[C@H]2CCC(C)(C)N2C#N)C(C(=O)NC2CCCCC2)c2cccnc2)cc1 (stereo partly drawn) [Compound 262, (2R)—N-(4-tert-butylphenyl)-1-cyano-N-[2-(cyclohexylamino)-2-oxo-1-(3-pyridyl)ethyl]-5,5-dimethyl-pyrrolidine-2-carboxamide]	< 2000							
CC(C)(C)c1ccc(N(C(=O)[C@H]2Cc3ccccc3CN2C#N)C(C(=O)NC2CCCCC2)c2cccnc2)cc1 (single isomer, unassigned) [Compound 374]	< 2000							
CO[C@@H]1C[C@H](C(=O)N(c2ccc(S(F)(F)(F)(F)F)cc2)C(C(=O)NCC2(C)CCCN(C(=O)OC(C)(C)C)C2)c2cccnc2)N(C#N)C1 (single isomer, unassigned) [1290 Isomer 2]		10000 to 30000 nM	2000 to 10000	2 to 10				
CS(=O)(=O)[C@H]1C[C@H](C(=O)N(c2ccc(S(F)(F)(F)(F)F)cc2)C(C(=O)NC2CCC(F)(F)CC2)c2cncc(F)c2)N(C#N)C1 (single isomer, unassigned) [1105 Isomer 1]		< 2000 nM	< 2000		< 2			
COCCCNC(=O)C(c1cccnc1)N(C(=O)[C@H]1C[C@@H](O)CN1C#N)c1ccc(C(C)(C)C)cc1 (single isomer, unassigned) [647 Isomer 1]		< 2000 nM	< 2000		< 2			
Cc1nc[nH]c1C(C(=O)NC1CCC(F)(F)CC1)N(C(=O)[C@H]1C[C@@](C)(O)CN1C#N)c1ccc(S(F)(F)(F)(F)F)cc1 (single isomer, unassigned) [1324 Isomer 2]		10000 to 30000 nM		2 to 10		10000 to 30000		
N#C[C@H]1C[C@H](C(=O)N(c2ccc(S(F)(F)(F)(F)F)cc2)C(C(=O)NC2CCC(F)(F)CC2)c2cncc(F)c2)N(C#N)C1 (single isomer, unassigned) [1100 Isomer 1]		< 2000 nM	< 2000		< 2			
C[C@@H]1CN(C#N)[C@H]1C(=O)N(c1ccc(S(F)(F)(F)(F)F)cc1)C(C(=O)NC1CCC(F)(F)CC1)c1cncc(F)c1 (single isomer, unassigned) [1211 Isomer 2]		< 2000 nM		< 2		< 2000		
CO[C@@H]1C[C@H](C(=O)N(c2ccc(S(F)(F)(F)(F)F)cc2)C(C(=O)N2CC3(COC3)C2)c2cccnc2)N(C#N)C1 (single isomer, unassigned) [1171 Isomer 1]		10000 to 30000 nM and < 2000 nM	< 2000	< 2	2 to 10			
CO[C@@H]1C[C@H](C(=O)N(c2ccc(S(F)(F)(F)(F)F)cc2)C(C(=O)N2CCC3(COC3)C2)c2cccnc2)N(C#N)C1 (stereo partly drawn) [Compound 1174, (2R,4R)-1-cyano-4-methoxy-N-[2-(2-oxa-7-azaspiro[3.4]octan-7-yl)-2-oxo-1-(3-pyridyl)ethyl]-N-[4-(pentafluoro-λ^6-sulfanyl)phenyl]pyrrolidine-2-carboxamide]		2000 to 10000 nM	< 2000		< 2			
CO[C@@H]1C[C@H](C(=O)N(c2ccc(S(F)(F)(F)(F)F)cc2)C(C(=O)N2CCCC3(COC3)C2)c2cccnc2)N(C#N)C1 (single isomer, unassigned) [1175 Isomer 2]		10000 to 30000 nM		2 to 10		< 2000		
CC(C)(C)c1ccc(N(C(=O)[C@H]2CCCN2C#N)C(C(=O)NC2CCCCC2)c2cncc(F)c2)cc1 (single isomer, unassigned) [475 Isomer 1]		< 2000 nM	< 2000	2 to 10				
CC1(C)CCN(C#N)[C@H]1C(=O)N(c1ccc(S(F)(F)(F)(F)F)cc1)C(C(=O)NC1CCC(F)(F)CC1)c1cncc(F)c1 (single isomer, unassigned) [1094 Isomer 2]		10000 to 30000 nM	2000 to 10000	10 to 30				
CC(C)(C)c1ccc(N(C(=O)[C@H]2C[C@H](Oc3ccccc3)CN2C#N)C(C(=O)NC2CCCCC2)c2cccnc2)cc1 (single isomer, unassigned) [Compound 308 Isomer 1]		> 30000 nM	> 30000		> 30			
COc1ccc(NC(=O)C(c2cccnc2)N(C(=O)[C@H]2CCCN2C#N)c2ccc(C(C)(C)C)cc2)cn1 (single isomer, unassigned) [Compound 407 Isomer 1]		< 2000 nM	< 2000				2 to 10	
CO[C@@H]1C[C@H](C(=O)N(c2ccc(C(C)(C)C)cc2F)C(C(=O)NC2CCC(F)(F)CC2)c2cncc(F)c2)N(C#N)C1 (single isomer, unassigned) [1207 Isomer 2]		> 30000 nM	> 30000	> 30				
CO[C@@H]1C[C@H](C(=O)N(c2ccc(S(F)(F)(F)(F)F)cc2)C(C)(C(=O)NC2CCC(F)(F)CC2)c2cnccn2)N(C#N)C1 (single isomer, unassigned) [1299 Isomer 1]		2000 to 10000 nM	< 2000		2 to 10			
CO[C@@H]1C[C@H](C(=O)N(c2ccc(C(C)(C)C)cc2)C(C)(C(=O)NC2CCC(F)(F)CC2)c2cccnc2)N(C#N)C1 (single isomer, unassigned) [1232 Isomer 2]		< 2000 nM	< 2000	< 2				
CC(C)(C)c1ccc(N(C(=O)[C@H]2C[C@@H](O)CN2C#N)C(C(=O)NCc2cccnc2)c2cccnc2)cc1 (single isomer, unassigned) [643 Isomer 2]		2000 to 10000 nM		2 to 10		< 2000		
CN1CC(C(=O)N(c2ccc(S(F)(F)(F)(F)F)cc2)C(C(=O)NC2CCC(F)(F)CC2)c2cncc(F)c2)N(C#N)CC1=O (single isomer, unassigned) [Compound 1161 Isomer 4, 1-cyano-N-[2-[(4,4-difluorocyclohexyl)amino]-1-(5-fluoro-3-pyridyl)-2-oxo-ethyl]-4-methyl-5-oxo-N-[4-(pentafluoro-λ6-sulfanyl)phenyl]piperazine-2-carboxamide]		2000 to 10000 nM	2000 to 10000					2 to 10
CC(C)(C)c1ccc(N(C(=O)[C@H]2[C@H](F)CCN2C#N)C(C(=O)NC2CCCCC2)c2cccnc2)cc1 (single isomer, unassigned) [Compound 910 Isomer 2]		10000 to 30000 nM		2 to 10		< 2000		
CO[C@@H]1C[C@H](C(=O)N(c2ccc(S(F)(F)(F)(F)F)cc2)C(C(=O)NC(C)C2CCCCN2C(=O)OC(C)(C)C)c2cccnc2)N(C#N)C1 (single isomer, unassigned) [1303 Isomer 2]		< 2000 nM	< 2000	< 2				
COc1ccc(NC(=O)C(c2cccnc2)N(C(=O)[C@H]2C[C@@H](OC)CN2C#N)c2ccc(S(F)(F)(F)(F)F)cc2)cn1 (single isomer, unassigned) [1180 Isomer 2]		< 2000 nM	< 2000	< 2				
N#CC1(C(=O)N(c2ccc(S(F)(F)(F)(F)F)cc2)C(C(=O)NC2CCC(F)(F)CC2)c2cncc(F)c2)CC1 (single isomer, unassigned) [1289 Isomer 2, 1-cyano-N-[2-[(4,4-difluorocyclohexyl)amino]-1-(5-fluoro-3-pyridyl)-2-oxo-ethyl]-N-[4-(pentafluoro-λ^6-sulfanyl)phenyl]cyclopropanecarboxamide]		> 30000 nM		> 30		> 30000		
CC(C)(C)c1ccc(N(C(=O)C2CCC(F)(F)CN2C#N)C(C(=O)NC2CCCCC2)c2cccnc2)cc1 (single isomer, unassigned) [885 Isomer 1, N-(4-(tert-butyl)phenyl)-1-cyano-N-(2-(cyclohexylamino)-2-oxo-1-(pyridin-3-yl)ethyl)-5,5-difluoropiperidine-2-carboxamide]		> 30000 nM	10000 to 30000	> 30				
C[C@H](NC(=O)C(c1cccnc1)N(C(=O)c1ccco1)c1ccc(-c2ccccc2)cc1)c1ccccc1 (single isomer, unassigned) [1353 Isomer 2]		> 30000 nM	> 30000	> 30				
